Consider 25 compounds from PMC11487561 (ACS Chemical Neuroscience, 2024).

SMILES strings stand for the structures.

One data set deals with T1, human M4 (hM4) (Homo sapiens, UniProt P08173).
T1 construct: expressed in transfected cells
T1 sequence (P08173 1-479): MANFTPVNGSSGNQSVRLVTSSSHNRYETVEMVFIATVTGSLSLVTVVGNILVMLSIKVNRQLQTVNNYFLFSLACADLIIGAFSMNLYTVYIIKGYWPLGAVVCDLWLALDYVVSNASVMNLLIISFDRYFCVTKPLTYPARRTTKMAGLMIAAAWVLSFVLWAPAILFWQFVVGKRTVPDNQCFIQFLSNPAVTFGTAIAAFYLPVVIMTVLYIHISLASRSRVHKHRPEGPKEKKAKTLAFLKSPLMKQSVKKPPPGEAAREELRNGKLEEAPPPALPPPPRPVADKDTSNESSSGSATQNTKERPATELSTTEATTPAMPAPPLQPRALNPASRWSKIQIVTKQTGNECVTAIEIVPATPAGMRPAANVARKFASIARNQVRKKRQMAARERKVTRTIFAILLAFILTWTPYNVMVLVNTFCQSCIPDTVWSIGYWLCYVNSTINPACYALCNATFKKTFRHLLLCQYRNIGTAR
Description: Calcium mobilization assay, hM4/Gqi5-CHO cells, EC20 acetylcholine (PAM). The settings on record: 14e vs 14g; 14c vs VU6007215. Type of data set: cell-based.
Regarding `Cc1nc(C)c2c(n1)sc1c(N3CCC(F)(F)C3)ncnc12` [14e], the “fold loss in hM4 potency vs comparator” value is 2.2 fold.

For the compound `Cc1nc(C)c2c(n1)sc1c(N3CC4(COC4)C3)ncnc12` [14c], the “fold loss in hM4 potency vs comparator” value is on record as 11 fold.

Staying with this data set, now noted: calcium mobilization, hM4/Gqi5-CHO cells, EC20 acetylcholine.
On to `Cc1nc(C2CC2)nc2sc3c(NCc4ccc(C(C)(C)O)cc4)nccc3c12` [22o], for which the “hM4 pEC50” value is recorded as 5.86.

`Cc1nc(C2CC2)nc2sc3c(N4CCCC4)nccc3c12` [22q]: the “hM4 pEC50” value turned out to be 6.00.

In the case of `Cc1nc(C)c2c(n1)sc1c(NCc3ccc(C(C)(C)O)cc3)ncc(Cl)c12` [26a], the “hM4 pEC50” value worked out at 5.48.

Take `Cc1nc(C)c2c(n1)sc1c(N3CCC(F)(F)C3)ncnc12` [14e]: the “hM4 pEC50” value came out at 6.20.

`Cc1nc(C)c2c(n1)sc1c(N3CCCC3)ncnc12` [14g]: the “hM4 pEC50” value is on record as 6.54.

For `Cc1nc(C)c2c(n1)sc1c(NCc3ccc(C(C)(C)O)cc3F)nccc12` [22h], the “hM4 pEC50” value came out at 6.08.

On to `Cc1nc(C)c2c(n1)sc1c(NC3CCC3)nccc12` [22c], for which the “hM4 pEC50” value was 6.52.

`COc1ccc(CNc2ncnc3c2sc2nc(C)nc(C)c23)cc1F` [14k]: the “hM4 pEC50” value is listed as 5.94.

For `Cc1nc(C)c2c(n1)sc1c(NC3CCCC3)nccc12` [22d], the “hM4 pEC50” value was 6.87.

In the case of `Cc1nc(C)c2c(n1)sc1c(N3CCC3)ncnc12` [14d], the “hM4 pEC50” value came out at 5.84.

As for `Cc1nc(C)c2c(n1)sc1c(NCc3ccc(C(C)(C)O)cc3)ncnc12` [14j], the “hM4 pEC50” value is 5.90.

With `Cc1nc(C)c2c(n1)sc1c(NC3CCCC3)ncnc12` [14f], the “hM4 pEC50” value is on record as 6.25.

For the compound `Cc1nc(C)c2c(n1)sc1c(N3CC4(COC4)C3)ncnc12` [14c], the “hM4 pEC50” value was determined as 5.80.

Staying with this data set, now noted: calcium mobilization, hM4/Gqi5-CHO cells, EC20 acetylcholine; read-out: hM4 %ACh Max.
Regarding `Cc1nc(C2CC2)nc2sc3c(NCc4ccc(C(C)(C)O)cc4)nccc3c12` [22o], the Emax is 97%.

As for `Cc1nc(C2CC2)nc2sc3c(N4CCCC4)nccc3c12` [22q], the Emax is 65%.

Regarding `CCc1nc(C)c2c(n1)sc1c(NCc3ccc(C(C)(C)O)cc3)nccc12` [22p], the Emax turned out to be 81%.

`Cc1nc(C)c2c(n1)sc1c(C3CC3)nccc12` [23a]: the Emax was 109%.

Regarding `Cc1nc(CC(C)C)nc2sc3c(NCc4ccc(C(C)(C)O)cc4)nccc3c12` [22n], the Emax was determined as 66%.

`Cc1nc(C)c2c(n1)sc1c(N3CCOCC3)ncnc12` [14b]: the Emax was determined as 39%.

Take `Cc1nc(C)c2c(n1)sc1c(NCc3ccc(C(C)(C)O)cc3)ncc(Cl)c12` [26a]: the Emax was 92%.

For `Cc1nc(C)c2c(n1)sc1c(N3CCC(F)(F)C3)ncnc12` [14e], the Emax was 77%.

On to `Cc1nc(C)c2c(n1)sc1c(N3CCCC3)ncnc12` [14g], for which the Emax was 52%.

For `Cc1nc(C)c2c(n1)sc1c(NCc3ccc(C(C)(C)O)cc3F)nccc12` [22h], the Emax was found to be 89%.

Regarding `Cc1nc(C)c2c(n1)sc1c(NC3CCC3)nccc12` [22c], the Emax turned out to be 95%.

Consider `COc1ccc(CNc2ncnc3c2sc2nc(C)nc(C)c23)cc1F` [14k], for which the Emax came to 65%.

Turning to `Cc1nc(C)c2c(n1)sc1c(NC3CCCC3)nccc12` [22d], the Emax stood at 73%.

`Cc1nc(C)c2c(n1)sc1c(N3CCC3)ncnc12` [14d]: the Emax is 60%.

`Cc1nc(C)c2c(n1)sc1c(N3CCCC3)ncc(Cl)c12` [26b]: the Emax came out at 61%.

For the compound `Cc1nc(C)c2c(n1)sc1c(NCc3ccc(C(C)(C)O)cc3)ncnc12` [14j], the Emax was 70%.

On to `Cc1nc(C)c2c(n1)sc1c(N3CCN(C)CC3)nccc12` [22b], for which the Emax stood at 52%.

Consider `Cc1nc(C)c2c(n1)sc1c(CC(C)(C)C)nccc12` [23b], for which the Emax is 86%.

For the compound `CCN(CC)c1nccc2c1sc1nc(C)nc(C)c12` [22a], the Emax came to 38%.

Regarding `Cc1nc(C)c2c(n1)sc1c(NC3CCCC3)ncnc12` [14f], the Emax was 56%.

Turning to `Cc1nc(C)c2c(n1)sc1c(NCc3ccc(C(C)(C)O)c(F)c3)nccc12` [22i], the Emax came out at 86%.

For the compound `Cc1nc(C)c2c(n1)sc1c(NCc3ccc(C(C)(C)O)cc3)ncc(C#N)c12` [compound 28], the Emax was found to be 62%.

Turning to `Cc1nc(C)c2c(n1)sc1c(N3CC4(COC4)C3)ncnc12` [14c], the Emax came to 76%.

Still in this data set, the particulars now being: calcium mobilization, hM4/Gqi5-CHO cells, EC20 acetylcholine; read-out: hM4 EC50.
Turning to `Cc1nc(C)c2c(n1)sc1c(N3CCCCC3)ncnc12` [14a], the EC50 is above 30 µM.

Regarding `Cc1nc(C2CC2)nc2sc3c(NCc4ccc(C(C)(C)O)cc4)nccc3c12` [22o], the EC50 is 1.4 µM.

Turning to `Cc1nc(C2CC2)nc2sc3c(N4CCCC4)nccc3c12` [22q], the EC50 is 1 µM.

For the compound `CCc1nc(C)c2c(n1)sc1c(NCc3ccc(C(C)(C)O)cc3)nccc12` [22p], the EC50 was determined as 0.77 µM.

In the case of `Cc1nc(C)c2c(n1)sc1c(C3CC3)nccc12` [23a], the EC50 was found to be 0.57 µM.

As for `Cc1nc(C)c2c(n1)sc1c(N3CCOCC3)ncnc12` [14b], the EC50 was 5.6 µM.

With `Cc1nc(C)c2c(n1)sc1c(N3CCC(F)(F)C3)ncnc12` [14e], the EC50 is 0.64 µM.

As for `Cc1nc(C)c2c(n1)sc1c(N3CCCC3)ncnc12` [14g], the EC50 was found to be 0.29 µM.

On to `COc1ccc(CNc2ncnc3c2sc2nc(C)nc(C)c23)cc1F` [14k], for which the EC50 amounted to 1.2 µM.

For `Cc1nc(C)c2c(n1)sc1c(NC3CCCC3)nccc12` [22d], the EC50 came to 0.13 µM.

Regarding `Cc1nc(C)c2c(n1)sc1c(N3CCC3)ncnc12` [14d], the EC50 amounted to 1.4 µM.

Turning to `Cc1nc(C)c2c(n1)sc1c(N3CCCC3)ncc(Cl)c12` [26b], the EC50 stood at 0.69 µM.

For `Cc1nc(C)c2c(n1)sc1c(NCc3ccc(C(C)(C)O)cc3)ncnc12` [14j], the EC50 was found to be 1.3 µM.

On to `Cc1nc(C)c2c(n1)sc1c(N3CCN(C)CC3)nccc12` [22b], for which the EC50 was above 10 µM.

In the case of `Cc1nc(C)c2c(n1)sc1c(CC(C)(C)C)nccc12` [23b], the EC50 was 0.24 µM.

With `Cc1nc(C)c2c(n1)sc1c(NC3CCCC3)ncnc12` [14f], the EC50 was 0.56 µM.

As to `Cc1nc(C)c2c(n1)sc1c(NCc3ccc(C(C)(C)O)c(F)c3)nccc12` [22i], the EC50 came to 0.28 µM.

For `Cc1nc(C)c2c(n1)sc1c(NCc3ccc(C(C)(C)O)cc3)ncc(C#N)c12` [compound 28], the EC50 turned out to be 0.96 µM.

On to `Cc1nc(C)c2c(n1)sc1c(N3CC4(COC4)C3)ncnc12` [14c], for which the EC50 stood at 1.6 µM.

Still in this data set, the particulars now being: calcium mobilization, hM4/Gqi5-CHO cells, EC20 acetylcholine; read-out: hM4 pEC50 (converted).
As to `Cc1nc(C)c2c(n1)sc1c(N3CCCCC3)ncnc12` [14a], the EC50 is above 31.6 µM.

Turning to `Cc1nc(C)c2c(n1)sc1c(N3CCOCC3)ncnc12` [14b], the EC50 is 5.5 µM.

With `Cc1nc(C)c2c(n1)sc1c(NCc3ccc(C(C)(C)O)cc3)ncc(C3CC3)c12` [compound 27], the EC50 is above 31.6 µM.

The data set is the same for the next values; noted with them: in μM; read-out: hM4 EC50.
For the compound `COc1ccc(CNc2ncnc3c2sc2nc(C)nc(C)c23)cc1F` [14k], the EC50 is above 1 µM.

In the case of `Cc1nc(C)c2c(n1)sc1c(NCc3ccc(C(C)(C)O)cc3)ncnc12` [14j], the EC50 is above 1 µM.

Staying with this data set, now noted: relative to the R1 = methyl analogue.
As to `Cc1nc(C2CC2)nc2sc3c(NCc4ccc(C(C)(C)O)cc4)nccc3c12` [22o], the “fold decrease in hM4 activity with R1 larger than methyl” value (“fold decrease in hM4 activity” for short) is 9.3 fold.

Consider `Cc1nc(C2CC2)nc2sc3c(N4CCCC4)nccc3c12` [22q], for which the “fold decrease in hM4 activity” value is reported as above 13 fold.

For the compound `CCc1nc(C)c2c(n1)sc1c(NCc3ccc(C(C)(C)O)cc3)nccc12` [22p], the “fold decrease in hM4 activity” value came to 4.0 fold.

Consider `Cc1nc(CC(C)C)nc2sc3c(NCc4ccc(C(C)(C)O)cc4)nccc3c12` [22n], for which the “fold decrease in hM4 activity” value is given as above 66 fold.

Test system in a further data set: not listed separately
Put plainly: Binding in brain homogenate from rat (equilibrium dialysis). The class given is in vitro ADME. The settings on record: rat, brain homogenate, in %; read-out: fu,brain (rat brain homogenate). Here is the method:
Binding in brain homogenate from rat.
Determination of fraction unbound (f u) in brain homogenate from rat was conducted using the same methodology and procedure than described for plasma protein binding assay with the following modifications: 1) a final compound concentration of 1 μM was used, 2) naïve rat brains were homogenized in DPBS (1:3 composition of brain: DPBS, w/w) using a Mini-Bead Beater™ machine in order to obtain […]
The diluted fraction unbound (f u2) in brain was calculated as (analyte to IS MS peak area ratio from Trans-buffer side) / (analyte to IS MS peak area ratio from Cis-brain homogenate side). Undiluted fraction unbound for the brain was calculated using the following equation: […]
Mean values for each species were calculated from 3 replicates. […]
A general note: In equilibrium dialysis only unbound substance equilibrates across the membrane.
In the case of `Cc1nc(C)c2c(n1)sc1c(NCc3ccc(C(C)(C)O)c(F)c3)nccc12` [22i], the fraction unbound at 6 h, 1 µM is below 0.01.
